The target of the first assay is AMPK. In words: AMPK activation, enzyme-linked immunosorbent assay. Type of assay: biochemical. The settings on record: compounds of Table 1 (Table 6).
Turning to `O=C(NC1CCN(Cc2ccccn2)CC1)c1cc2ccc(OC3CCN(c4ccc(C(F)(F)F)cc4)CC3)cc2o1` [1-93, N-(1-(pyridin-2-ylmethyl)piperidin-4-yl)-6-(1-(4-(trifluoromethyl)phenyl)piperidin-4-yloxy)benzofuran-2-carboxamide], the EC50 was 100 to 500 nM.
Still for that read-out and setting: the figure for `CN(C(=O)c1cc2cc(OC3CCN(c4ccc(C(F)(F)F)cc4)CC3)ccc2o1)C1CCN(Cc2ccc(C#N)cc2)CC1` [1-107, N-(1-(4-cyanobenzyl)piperidin-4-yl)-N-methyl-5-(1-(4-(trifluoromethyl)phenyl)piperidin-4-yloxy)benzofuran-2-carboxamide] is under 100 nM; for `O=S(=O)(NC1CCNCC1)c1ccc(OC2CCN(c3ccc(C(F)(F)F)cc3)CC2)nc1` [1-55, N-(piperidin-4-yl)-6-(1-(4-(trifluoromethyl)phenyl)piperidin-4-yloxy)pyridine-3-sulfonamide] it is 1000 to 5000 nM.
In the case of `Cc1c(C(=O)NC2CCN(Cc3ccc(C#N)cc3)CC2)oc2cc(OC3CCN(c4ccc(C(F)(F)F)cc4)CC3)ccc12` [1-64, N-(1-(4-cyanobenzyl)piperidin-4-yl)-3-methyl-6-(1-(4-(trifluoromethyl)phenyl)piperidin-4-yloxy)benzofuran-2-carboxamide], the EC50 was under 100 nM.
Same read-out and setting: then `FC(F)(F)c1ccc(N2CCC(Oc3ccc4c(c3)CCC4NC3CCNCC3)CC2)cc1` (centres unmarked) [1-157, N-(5-(1-(4-(trifluoromethyl)phenyl)piperidin-4-yloxy)-2,3-dihydro-1H-inden-1-yl)piperidin-4-amine], with 1000 to 5000 nM.
The molecule `N#Cc1ccc(N2CCC(Oc3ccc4oc(C(=O)NC5CCN(Cc6ccccc6)CC5)cc4c3)CC2)cc1` [1-71, N-(1-benzylpiperidin-4-yl)-5-(1-(4-cyanophenyl)piperidin-4-yloxy)benzofuran-2-carboxamide] returned a 50% effective concentration (EC50) of under 100 nM.
Same read-out and setting: the figure for `O=C(NC1CCN(Cc2ccc(F)cc2)CC1)c1ccc(OC2CCN(c3ccc(C(F)(F)F)cc3)CC2)nc1` [1-11, N-(1-(4-fluorobenzyl)piperidin-4-yl)-6-(1-(4-(trifluoromethyl)phenyl)piperidin-4-yloxy)nicotinamide] is under 100 nM; for `N#Cc1ccc(CN2CCC(NC(=O)c3ccc(OC4CCN(c5ccc(C#N)cc5)CC4)cn3)CC2)cc1` [1-2, N-(1-(4-cyanobenzyl)piperidin-4-yl)-5-(1-(4-cyanophenyl)piperidin-4-yloxy)picolinamide] it is under 100 nM; for `Cc1c(C(=O)NC2CCN(C(=O)OC(C)(C)C)CC2)oc2cc(OC3CCN(c4ccc(C(F)(F)F)cc4)CC3)ccc12` [1-61, tert-butyl 4-(3-methyl-6-(1-(4-(trifluoromethyl)phenyl)piperidin-4-yloxy)benzofuran-2-carboxamido)piperidine-1-carboxylate] it is 100 to 500 nM.
The same measure, in the same setting: then `O=S(=O)(NC1CCN(Cc2ccc(C(F)(F)F)cc2)CC1)c1ccc(OC2CCN(c3ccc(C(F)(F)F)cc3)CC2)nc1` [1-58, N-(1-(4-(trifluoromethyl)benzyl)piperidin-4-yl)-6-(1-(4-(trifluoromethyl)phenyl)piperidin-4-yloxy)pyridine-3-sulfonamide], with under 100 nM; and `CN(C(=O)c1cc2cc(OC3CCN(c4ccc(C(F)(F)F)cc4)CC3)ccc2o1)C1CCN(Cc2cccnc2)CC1` [1-109, N-methyl-N-(1-(pyridin-3-ylmethyl)piperidin-4-yl)-5-(1-(4-(trifluoromethyl)phenyl)piperidin-4-yloxy)benzofuran-2-carboxamide], with under 100 nM.
Same read-out and setting: the figure for `N#Cc1ccc(CN2CCC(NC(=O)c3cncc(OC4CCN(c5ccc(C(F)(F)F)cc5)CC4)c3)CC2)cc1` [1-17, N-(1-(4-cyanobenzyl)piperidin-4-yl)-5-(1-(4-(trifluoromethyl)phenyl)piperidin-4-yloxy)nicotinamide] is under 100 nM; for `O=C(NC1CCNCC1)c1cc2cc(OC3CCN(c4ccc(C(F)(F)F)cc4)CC3)ccc2s1` [1-150, N-(piperidin-4-yl)-5-(1-(4-(trifluoromethyl)phenyl)piperidin-4-yloxy)benzo[b]thiophene-2-carboxamide] it is 1000 to 5000 nM; for `O=C(N[C@H]1CCN(Cc2cccnc2)C1)c1cc2cc(OC3CCN(Cc4ccc(Cl)cc4)CC3)ccc2o1` [1-130, (S)-5-(1-(4-chlorobenzyl)piperidin-4-yloxy)-N-(1-(pyridin-3-ylmethyl)pyrrolidin-3-yl)benzofuran-2-carboxamide] it is 1000 to 5000 nM.
The molecule `O=C(NC1CCN(Cc2cncnc2)CC1)c1ccc(OC2CCN(c3ccc(C(F)(F)F)cc3)CC2)cn1` [1-44, N-(1-(pyrimidin-5-ylmethyl)piperidin-4-yl)-5-(1-(4-(trifluoromethyl)phenyl)piperidin-4-yloxy)picolinamide] came in with an EC50 of 100 to 500 nM.

Still in this assay, the particulars now being: compounds of Table 2 (Table 7).
`O=C(NC1CCN(Cc2cocn2)CC1)c1ccc2[nH]c3c(c2c1)CN(Cc1ccc(C(F)(F)F)cc1)CC3` [2-54, N-(1-(oxazol-4-ylmethyl)piperidin-4-yl)-2-(4-(trifluoromethyl)benzyl)-2,3,4,5-tetrahydro-1H-pyrido [4,3-b]indole-8-carboxamide] registered an EC50 of under 500 nM.
With `O=C(NC1CCN(Cc2cccnc2)CC1)c1ccc2[nH]c3c(c2c1)CN(Cc1ccc(C(F)(F)F)cc1)CC3` [2-11, N-(1-(pyridin-3-ylmethyl)piperidin-4-yl)-2-(4-(trifluoromethyl)benzyl)-2,3,4,5-tetrahydro-1H-pyrido [4,3-b]indole-8-carboxamide], the EC50 was under 500 nM.
Same read-out and setting: then `O=C(NC1CCN(Cc2ccc(C(F)(F)F)cc2)CC1)c1ccc2[nH]c3c(c2c1)CN(Cc1ccc(F)cc1)CC3` [2-10, N-(1-(4-trifluoro-methylbenzyl)piperidin-4-yl)-2-(4-fluorobenzyl)-2,3,4,5-tetrahydro-1H-pyrido[4,3-b] indole-8-carboxamide], with 500 to 1000 nM; and `O=C(NC1CCN(S(=O)(=O)c2ccc(C(F)(F)F)cc2)CC1)c1ccc2[nH]c3c(c2c1)CN(Cc1ccc(C(F)(F)F)cc1)CC3` [2-23, 2-(4-(trifluoromethyl)benzyl)-N-(1-(4-(trifluoromethyl)phenylsulfonyl)piperidin-4-yl)-2,3,4,5-tetrahydro-1H-pyrido[4,3-b]indole-8-carboxamide], with 1000 to 5000 nM; and `NC(=O)c1ccc(CN2CCc3[nH]c4ccc(C(=O)NC5CCN(C(=O)c6ccncc6)CC5)cc4c3C2)cc1` [2-46, 2-(4-carbamoylbenzyl)-N-(1-isonicotinoylpiperidin-4-yl)-2,3,4,5-tetrahydro-1H-pyrido [4,3-b]indole-8-carboxamide], with over 100000 nM.
The same measure, in the same setting: then `N#Cc1ccc(CN2CCC(NC(=O)c3ccc4[nH]c5c(c4c3)CN(Cc3ccc(F)cc3)CC5)CC2)cc1` [2-9, N-(1-(4-cyanobenzyl)piperidin-4-yl)-2-(4-fluorobenzyl)-2,3,4,5-tetrahydro-1H-pyrido[4,3-b]indole-8-carboxamide], with under 500 nM; and `O=C(NC1CCN(Cc2ccc(C(F)(F)F)cc2)CC1)c1ccc2[nH]c3c(c2c1)CN(c1ccc(F)cc1)CC3` [2-37, 2-(4-fluorophenyl)-N-(1-(4-(trifluoromethyl)benzyl)piperidin-4-yl)-2,3,4,5-tetrahydro-1H-pyrido[4,3-b]indole-8-carboxamide], with 5000 to 10000 nM; and `CC(C)(C)OC(=O)N1CCC(NC(=O)c2ccc3[nH]c4c(c3c2)CN(C(=O)OCc2ccccc2)CC4)CC1` [2-3, benzyl 8-(1-(tert-butoxycarbonyl)piperidin-4-ylcarbamoyl)-3,4-dihydro-1H-pyrido[4,3-b]indole-2(5H)-carboxylate], with 10000 to 50000 nM.

The assay is the same for the next values; noted with them: compounds of Table 3 (Table 8).
The molecule `CC(C)(C)OC(=O)N1CCC(Oc2ncc(C(=O)NC3CCN(Cc4ccc(C#N)cc4)CC3)s2)CC1` [3-26, tert-butyl 4-(5-(1-(4-cyanobenzyl)piperidin-4-ylcarbamoyl)thiazol-2-yloxy)piperidine-1-carboxylate] gave a 50% effective concentration (EC50) of 1000 to 10000 nM.
With `N#Cc1ccc(C(=O)N2CC3CC2CN3C(=O)c2nc3ccc(OC4CCN(c5ccc(C(F)(F)F)cc5)CC4)cc3o2)cc1` (centres unmarked) [3-12, 4-(5-(6-(1-(4-(trifluoromethyl)phenyl)piperidin-4-yloxy)benzo[d]oxazole-2-carbonyl)-2,5-diazabicyclo[2.2.1]heptane-2-carbonyl)benzonitrile], the EC50 was under 100 nM.
Same read-out and setting: the figure for `O=C(NC1CCN(Cc2cccnc2)CC1)c1ccc2c(c1)CN(Cc1ccc(F)cc1)CC2` [3-35, 2-(4-fluorobenzyl)-N-(1-(pyridin-3-ylmethyl)piperidin-4-yl)-1,2,3,4-tetrahydroisoquinoline-7-carboxamide] is 1000 to 10000 nM.

Still in this assay, the particulars now being: compounds of Table 5 (Table 10).
Turning to `O=C(NC1CCN(Cc2ccc(F)cc2)CC1)c1ccc(OC2CCN(Cc3ccc(Cl)cc3)CC2)c(Cl)c1` [5-66, 3-chloro-4-(1-(4-chlorobenzyl)piperidin-4-yloxy)-N-(1-(4-fluorobenzyl)piperidin-4-yl)benzamide], the 50% effective concentration (EC50) was under 1000 nM.
On the same count and under the same terms, then `O=C(NC1CCN(Cc2ccccn2)CC1)c1ccc(OC2CCN(c3ccc(C(F)(F)F)cc3)CC2)c(F)c1` [5-32, 3-fluoro-N-(1-(pyridin-2-ylmethyl)piperidin-4-yl)-4-(1-(4-(trifluoromethyl)phenyl)piperidin-4-yloxy)benzamide], with under 1000 nM; and `N#Cc1ccc(CN2CCC(NC(=O)c3ccc(OC4CCN(c5ccc(C#N)cc5)CC4)c(F)c3)CC2)cc1` [5-45, N-(1-(4-cyanobenzyl)piperidin-4-yl)-4-(1-(4-cyanophenyl)piperidin-4-yloxy)-3-fluorobenzamide], with under 1000 nM.
The same measure, in the same setting: the figure for `O=C(NC1CCN(Cc2ccccc2)CC1)c1ccc(OC2CCN(Cc3ccc(Cl)cc3)CC2)c(F)c1` [5-64, N-(1-benzylpiperidin-4-yl)-4-(1-(4-chlorobenzyl)piperidin-4-yloxy)-3-fluorobenzamide] is under 1000 nM; for `COc1cc(C(=O)NCCCN2CCOCC2)ccc1OC1CCN(Cc2ccc(Cl)cc2)CC1` [5-98] it is 1000 to 10000 nM.
Same read-out and setting: then `CC(C)S(=O)(=O)N1CCC(NC(=O)c2ccc(OC3CCN(c4ccc(C(F)(F)F)cc4)CC3)c(F)c2)CC1` [5-34, 3-fluoro-N-(1-(isopropylsulfonyl)piperidin-4-yl)-4-(1-(4-(trifluoromethyl)phenyl)piperidin-4-yloxy)benzamide], with under 1000 nM.

Source of the values: patent US9511058B2, “Methods for using carboxamide, sulfonamide and amine compounds” (Rigel Pharmaceuticals, Inc., priority 2010, dated 2016).
